In PMC7570844, “Skin Damages—Structure Activity Relationship of Benzimidazole Derivatives Bearing a 5-Membered Ring System” (Molecules, 2020):

Columns and labels:
vaccinia virus = assay: microbe, parasite or virus in culture; assay type: cell-based; conditions: Orthopoxvirus vaccinia, HEL, read-out: Antiviral EC50
[1] = tested on: human embryonic lung (HEL) cell cultures
[2] = tested on: herpes simplex virus-2 (G); assay: Antiviral activity in HEL cell cultures (CPE, MTS); assay type: cell-based; conditions: Human alphaherpesvirus 2; Herpes simplex virus-2, HEL cells
[3] = tested on: herpes simplex virus-1 TK-KOS ACVr; assay: microbe, parasite or virus in culture; assay type: cell-based; conditions: Human alphaherpesvirus 1, HEL, read-out: Antiviral EC50
[4] = tested on: herpes simplex virus-1 (KOS); assay: Antiviral activity in HEL cell cultures (CPE, MTS); assay type: cell-based; conditions: Human alphaherpesvirus 1, HEL cells
[5] = Ferric reducing antioxidant power (FRAP) test; conditions: mean ± SEM
[6] = DPPH radical scavenging test; conditions: mean ± SEM
Adeno virus-2 = assay: Antiviral activity in HEL cell cultures (CPE, MTS); assay type: cell-based; conditions: Adeno virus-2, HEL cells
[7] = tested on: Trichophyton mentagrophytes; assay: Antidermatophyte plaque growth inhibition; assay type: cell-based; conditions: T. mentagrophytes, 100 µg/mL, '+' has no key, read-out: Percent growth inhibition
HeLa cell cultures = conditions: human
Microsporum gypseum = assay: Antidermatophyte plaque growth inhibition; assay type: cell-based; conditions: Nannizzia gypsea; M. gypseum, 100 µg/mL; '+' has no key; read-out: Percent growth inhibition
Coxsackie virus B4 = assay: Antiviral activity in HeLa cell cultures (CPE, MTS); assay type: cell-based; conditions: Enterovirus B; Coxsackie virus B4, HeLa cells
Human Coronavirus (229E) = assay: microbe, parasite or virus in culture; assay type: cell-based; conditions: HEL, read-out: Antiviral EC50
[8] = tested on: Respiratory syncytial virus; assay: microbe, parasite or virus in culture; assay type: cell-based; conditions: human respiratory syncytial virus, HeLa cells, read-out: Antiviral EC50
[9] = tested on: human pancreatic carcinoma cells (Mia Paca-2); assay: Cell proliferation inhibition
[10] = tested on: vesicular stomatitis virus; assay: microbe, parasite or virus in culture; assay type: cell-based; conditions: HeLa, read-out: Antiviral EC50
[11] = tested on: human cervical carcinoma cells (HeLa); assay: Cell proliferation inhibition
[12] = UV filtering parameters of compounds in solution (MeOH, 290-400 nm)
[13] = tested on: HEK293T (Normal Kidney Epithelial Cells); assay: Cell proliferation inhibition, non-cancer control cells; conditions: Homo sapiens, HEK-293T
Trichophyton tonsurans = assay: Antidermatophyte plaque growth inhibition; assay type: cell-based; conditions: T. tonsurans, 100 µg/mL, '+' has no key, read-out: Percent growth inhibition
[14] = tested on: human T-lymphocyte cells (CEM); assay: Cell proliferation inhibition
Epidermophyton floccosum = assay: Antidermatophyte plaque growth inhibition; assay type: cell-based; conditions: E. floccosum, 100 µg/mL, '+' has no key, read-out: Percent growth inhibition
[15] = tested on: human melanoma cells (SK-Mel 5); assay: Cell proliferation inhibition
Microsporum canis = assay: Antidermatophyte plaque growth inhibition; assay type: cell-based; conditions: M. canis, 100 µg/mL, '+' has no key, read-out: Percent growth inhibition

In the case of `Nc1nc2c(ncn2COCCO)c(=O)[nH]1` [Acyclovir, reference compound], the EC50 (vaccinia virus) is reported as greater than 250 µM, the Cytotoxic concentration [1] is reported as greater than 250 µM and the EC50 [2] is reported as 0.6 µM. It also gave an EC50 [3] of 2 µM and an EC50 [4] of 0.6 µM.

Work on `O=c1[nH]c(=O)n([C@H]2C[C@H](O)[C@@H](CO)O2)cc1/C=C/Br` [Birivudin, Brivudin, reference compound] yielded an EC50 (vaccinia virus) of 5.8 µM, a Cytotoxic concentration [1] greater than 250 µM and an EC50 [3] of 0.1 µM. For the same compound, the EC50 [4] was 0.01 µM.

For `O=C(O)/C=C/c1ccc(O)c(O)c1` [Caffeic acid, reference compound], the FRAP [5] was 10156.12 ± 15.5 µmolTE/g and the “DPPH (% Inhibition)” value ([6]; tested concentration 0.0105 mg/mL) was 81.35 ± 0.35%.

In the case of `Nc1ccn(C[C@@H](CO)OCP(=O)(O)O)c(=O)n1` [Cidofovir, reference compound], the EC50 (vaccinia virus) is reported as 50 µM, the Cytotoxic concentration [1] is reported as greater than 250 µM and the EC50 [2] is reported as 3.4 µM. The EC50 [3] was 2.8 µM, the EC50 [4] was 4.5 µM and the EC50 (Adeno virus-2) was 10 µM.

`O=S(=O)(O)c1ccc2[nH]c(-c3ccco3)nc2c1` [Compound 8, 2-(furan-2-yl)-1H-benzimidazole-5-sulfonic Acid] gave an EC50 (vaccinia virus) greater than 100 µM, an inhibition at 100 µg/mL [7] of less than 0% and a melting point greater than 250 °C. It also gave a Cytotoxic concentration (HeLa cell cultures) greater than 100 µM, an inhibition at 100 µg/mL (Microsporum gypseum) of 8 ± 2.44% and an EC50 (Coxsackie virus B4) greater than 100 µM. For the same compound, the FRAP [5] was “<LOQ *”, the EC50 (Human Coronavirus (229E)) was greater than 100 µM and the EC50 [8] was greater than 100 µM. It also gave a Cytotoxic concentration [1] greater than 100 µM, an IC50 [9] of no less than 100 µM and an EC50 [10] greater than 100 µM. It also gave an EC50 [2] greater than 100 µM, an EC50 [3] greater than 100 µM and an IC50 [11] of no less than 100 µM. The “DPPH (% Inhibition)” value ([6]; tested at 1 mg/mL) was 10.96 ± 0.56%, the EC50 [4] was greater than 100 µM and the SPF [12] was 10.96±0.54. For the same compound, the UVA/UVB [12] was 0.29, the UVAPF [12] was 1.33±0.05 and the “λc (critical wavelength)” value [12] was 342 nm. It also gave an IC50 [13] greater than 100 µM, an inhibition at 100 µg/mL (Trichophyton tonsurans) of less than 0% and an EC50 (Adeno virus-2) greater than 100 µM. The IC50 [14] was greater than 100 µM, the inhibition at 100 µg/mL (Epidermophyton floccosum) was less than 0% and the IC50 [15] was no less than 100 µM. For the same compound, the inhibition at 100 µg/mL (Microsporum canis) was less than 0%.
